Assay results as given in US20120157472A1, “METHOD FOR TREATING COLORECTAL CANCER” (BOEHRINGER INGELHEIM INTERNATIONAL GMBH, priority 2009, published 2012).
Entries after “also recorded” stand apart in the source; their conditions may differ.

Legend:
angiogenesis = assay: Angiogenesis inhibition by CD31 staining; type: in vivo
[1] = system: human colorectal cancer cell lines; assay: In vitro effects on human colorectal cancer cell lines; type: cell-based; details: for cytotoxic activity: conclusion, single agent; for growth inhibition / cell cycle effect: exposure of colorectal cancer cells to single agent
Description: (§1) A panel of 14 well-characterized human colorectal cancer cell lines were used to characterize the in vitro effects of BIBF 1120 (B1), BIBW 2992 (B2) and their combinations. The antitumor effects of the 2 drugs were evaluated in mice with HT-29 colorectal xenografts.

[2] = system: HT-29 colorectal xenografts; assay: Tumor growth inhibition in mice with HT-29 colorectal xenografts; type: in vivo; details: single agent, daily 10 mg/kg p.o., HT-29 xenografts, sub-optimal dose
Description: as §1
The tumor growth inhibitory activities of B1 and B2 were determined for HT-29 xenografts after daily drug administration (10 mg/kg p.o.) or, for control animals, by oral administration of the solvent. […] Since the studies were designed to detect additive or synergistic interactions between the two drugs in subsequent experiments, only sub-optimal doses were used in these studies. Each group represents at least seven mice.
The tumor growth inhibitory activities of B1 and B2 were determined for HT-29 xenografts after daily drug administration (10 mg/kg p.o.) or, for control animals, by oral administration of the solvent.

For `COC(=O)c1ccc2c(c1)NC(=O)/C2=C(\Nc1ccc(N(C)C(=O)CN2CCN(C)CC2)cc1)c1ccccc1` [B1, 3-Z-[1-(4-(N-((4-methyl-piperazin-1-yl)-methylcarbonyl)-N-methyl-amino)-anilino)-1-phenyl-methylene]-6-methoxycarbonyl-2-indolinone], the inhibition of angiogenesis (angiogenesis) was “inhibited angiogenesis; also recorded: antiangiogenic activity”, the cytotoxic activity [1] was “cytotoxic” and the “growth inhibition / cell cycle effect” value [1] was “growth inhibition linked to extensive G1 arrest”. For the same compound, the “tumor growth inhibitory activity (tumor volume over treatment time)” value [2] was “exhibit growth inhibitor activity”.

With `CN(C)C/C=C/C(=O)Nc1cc2c(Nc3ccc(F)c(Cl)c3)ncnc2cc1O[C@H]1CCOC1` [B2, 4-[(3-chloro-4-fluorophenyl)amino]-6-{[4-(N,N-dimethylamino)-1-oxo-2-buten-1-yl]amino}-7-((S)-tetrahydrofuran-3-yloxy)-quinazoline] the inhibition of angiogenesis (angiogenesis) was “inhibited angiogenesis; also recorded: antiangiogenic activity”, the cytotoxic activity [1] was “cytotoxic” and the “growth inhibition / cell cycle effect” value [1] was “growth inhibition linked to extensive G1 arrest”. The “tumor growth inhibitory activity (tumor volume over treatment time)” value [2] was “exhibit growth inhibitor activity”.
